Measurements taken from the supplement of paper PMC10307832.

Columns and labels:
Assay in all cases: relative viability (nuclei count vs DMSO), 5 days (fraction); higher = more cells survive
Erlotinib + Pemetrexed = compound: C#Cc1cccc(Nc2ncnc3cc(OCCOC)c(OCCOC)cc23)c1 [Erlotinib] + Nc1nc2[nH]cc(CCc3ccc(C(=O)N[C@@H](CCC(=O)O)C(=O)O)cc3)c2c(=O)[nH]1 [Pemetrexed] (partner 0.2 µM)
How it was run: (§1)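 Lung cancer cell lines were pin-tool dosed in 1536-well plates on the day after seeding, with either a lone drug or a fixed anchor-drug dose plus five library-drug doses (not always all listed) in √10 steps. Nuclei were counted on 4× images after 5 days. Relative viability is the ratio of treated-well to vehicle-well nuclei counts, with each value a median of duplicate plates.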

AT9283 + Bortezomib = compound: O=C(Nc1c[nH]nc1-c1nc2ccc(CN3CCOCC3)cc2[nH]1)NC1CC1 [AT9283] + CC(C)C[C@H](NC(=O)[C@H](Cc1ccccc1)NC(=O)c1cnccn1)B(O)O [Bortezomib] (partner 0.002 µM)
How it was run: as §1

Erlotinib + Foretinib = compound: C#Cc1cccc(Nc2ncnc3cc(OCCOC)c(OCCOC)cc23)c1 [Erlotinib] + COc1cc2c(Oc3ccc(NC(=O)C4(C(=O)Nc5ccc(F)cc5)CC4)cc3F)ccnc2cc1OCCCN1CCOCC1 [Foretinib] (partner 0.25 µM)
How it was run: as §1

AT9283 + Tozasertib = compound: O=C(Nc1c[nH]nc1-c1nc2ccc(CN3CCOCC3)cc2[nH]1)NC1CC1 [AT9283] + Cc1cc(Nc2cc(N3CCN(C)CC3)nc(Sc3ccc(NC(=O)C4CC4)cc3)n2)n[nH]1 [Tozasertib] (partner 0.1 µM)
How it was run: as §1

Erlotinib + Palbociclib = compound: C#Cc1cccc(Nc2ncnc3cc(OCCOC)c(OCCOC)cc23)c1 [Erlotinib] + CC(=O)c1c(C)c2cnc(Nc3ccc(N4CCNCC4)cn3)nc2n(C2CCCC2)c1=O [Palbociclib] (partner 0.5 µM)
How it was run: as §1

Cell Line	relative viability (Erlotinib + Pemetrexed; first compound 0.02 µM)	relative viability (Erlotinib + Pemetrexed; first compound 0.2 µM)	relative viability (Erlotinib + Pemetrexed; first compound 0.6325 µM)	relative viability (Erlotinib + Pemetrexed; first compound 2 µM)	relative viability (AT9283 + Bortezomib; first compound 0.003 µM)	relative viability (AT9283 + Bortezomib; first compound 0.03 µM)	relative viability (AT9283 + Bortezomib; first compound 0.09487 µM)	relative viability (AT9283 + Bortezomib; first compound 0.3 µM)	relative viability (Erlotinib + Foretinib; first compound 0.02 µM)	relative viability (Erlotinib + Foretinib; first compound 0.2 µM)	relative viability (Erlotinib + Foretinib; first compound 0.6325 µM)	relative viability (Erlotinib + Foretinib; first compound 2 µM)	relative viability (AT9283 + Tozasertib; first compound 0.003 µM)	relative viability (AT9283 + Tozasertib; first compound 0.03 µM)	relative viability (AT9283 + Tozasertib; first compound 0.09487 µM)	relative viability (AT9283 + Tozasertib; first compound 0.3 µM)	relative viability (Erlotinib + Palbociclib; first compound 0.02 µM)	relative viability (Erlotinib + Palbociclib; first compound 0.2 µM)	relative viability (Erlotinib + Palbociclib; first compound 0.6325 µM)	relative viability (Erlotinib + Palbociclib; first compound 2 µM)
NCI-H647	0.173	0.187	0.19	0.151	0.822	0.145	0.13	0.0938	1.13	1.04	1.32	1.04	0.307	0.14	0.117	0.118	0.417	0.307	0.562	0.316
NCI-H650	0.966	0.852	0.991	1	0.652	0.775	0.561	0.14	1.03	1.02	1.19	0.924	0.693	0.408	0.17	0.177	0.317	0.341	0.335	0.35
NCI-H661	0.925	0.841	0.838	0.828	0.779	0.531	0.338	0.346	1	0.921	1.1	0.705	0.347	0.344	0.389	0.37	0.418	0.43	0.383	0.355
NCI-H838	0.263	0.253	0.233	0.266	0.777	0.228	0.184	0.231	1.14	0.992	1.09	–	0.274	0.271	0.216	0.24	0.225	0.205	0.225	0.211
NCI-H1355	1.06	0.995	1.03	–	1.15	1.13	1.23	0.287	1.01	0.821	0.877	0.781	0.518	0.464	0.224	0.218	0.387	0.344	0.325	0.269
NCI-H1437	0.33	0.33	0.395	0.27	0.496	0.398	0.175	0.164	1.31	1.23	1.24	1.2	0.426	0.321	0.215	0.238	0.308	0.27	0.319	0.281
NCI-H1650	0.337	0.324	0.352	0.298	0.206	0.222	0.231	0.215	0.747	0.594	0.697	0.699	0.386	0.328	0.36	0.35	0.265	0.287	0.309	0.245
NCI-H1651	0.619	0.417	0.509	0.52	0.914	0.897	0.902	0.618	0.704	0.753	–	0.753	0.699	0.638	0.506	0.316	0.527	0.474	0.514	0.478
NCI-H1666	0.81	0.693	–	0.753	0.806	0.442	0.297	0.298	1.06	0.86	0.802	0.767	0.671	0.479	0.428	0.43	0.624	0.613	0.631	0.74
NCI-H1734	0.45	0.39	0.4	0.397	0.904	0.349	0.296	0.223	0.789	–	0.921	0.768	0.255	0.249	0.233	0.186	0.346	0.342	0.372	0.41
NCI-H1755	0.477	0.398	0.402	0.368	0.983	0.91	0.498	0.529	0.942	0.936	0.916	0.907	0.624	0.469	0.419	0.367	0.454	0.449	0.446	0.458
NCI-H1915	0.532	0.482	0.434	0.487	0.769	0.952	0.887	0.341	1.08	1.2	1.12	1.1	0.347	0.3	0.195	0.179	0.522	0.526	0.599	0.502
NCI-H1975	0.288	0.294	0.292	0.263	0.388	0.264	0.173	0.179	0.951	1.02	–	0.71	0.728	0.664	0.58	0.311	0.539	0.611	0.639	0.472
NCI-H1993	0.63	0.466	0.544	0.564	1.31	0.997	0.576	0.504	0.772	0.736	0.578	0.716	0.6	0.571	0.611	0.491	0.585	0.561	0.503	0.514
NCI-H2009	1.07	0.999	1.01	1.04	1.01	0.639	0.363	0.233	1.28	1.24	1.36	1.23	0.737	0.514	0.399	0.226	0.173	0.205	0.235	0.203
NCI-H2023	0.226	0.211	0.174	0.184	1	0.918	0.174	0.123	0.754	0.607	0.589	0.406	0.388	0.232	0.19	0.18	0.393	0.351	0.297	0.225
